The results in this text go back to the supplement of paper PMC10307832.

Common to all, as to assay: relative viability (nuclei count vs DMSO), 5 days (fraction); higher = more cells survive
Compound in the assay “VE-821 + Lapatinib”: CS(=O)(=O)c1ccc(-c2cnc(N)c(C(=O)Nc3ccccc3)n2)cc1 [VE-821] + CS(=O)(=O)CCNCc1ccc(-c2ccc3ncnc(Nc4ccc(OCc5cccc(F)c5)c(Cl)c4)c3c2)o1 [Lapatinib] (partner 2 µM)
Summed up: (§1)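 Dosing by pin tool came one day after lung cancer cell lines were seeded in 1536-well plates, using either one drug or a fixed anchor-drug dose plus five library-drug doses (not always all listed) in √10 steps. After 5 days, nuclei were counted on 4× images. Relative viability is treated-well nuclei count divided by vehicle-well nuclei count, and values are medians of duplicate plates.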

Compound in the assay “Vismodegib + Vorinostat”: CS(=O)(=O)c1ccc(C(=O)Nc2ccc(Cl)c(-c3ccccn3)c2)c(Cl)c1 [Vismodegib] + O=C(CCCCCCC(=O)Nc1ccccc1)NO [Vorinostat] (partner 1 µM)
The essentials:
as §1

Compound in the assay “Ruxolitinib + Luminespib”: N#CC[C@H](C1CCCC1)n1cc(-c2ncnc3[nH]ccc23)cn1 [Ruxolitinib] + CCNC(=O)c1noc(-c2cc(C(C)C)c(O)cc2O)c1-c1ccc(CN2CCOCC2)cc1 [Luminespib] (partner 0.01 µM)
The essentials: as §1

Compound in the assay “Ruxolitinib + Crizotinib”: N#CC[C@H](C1CCCC1)n1cc(-c2ncnc3[nH]ccc23)cn1 [Ruxolitinib] + C[C@@H](Oc1cc(-c2cnn(C3CCNCC3)c2)cnc1N)c1c(Cl)ccc(F)c1Cl [Crizotinib] (partner 1 µM)
The essentials: as §1

On to UMC-11, for which the relative viability was 1.23 in the assay with VE-821 + Lapatinib (first compound 0.08 µM); 0.845 with VE-821 + Lapatinib (first compound 0.253 µM); 0.916 in the assay with VE-821 + Lapatinib (first compound 0.8 µM); 1.12 in the assay with VE-821 + Lapatinib (first compound 2.53 µM); 0.644 with VE-821 + Lapatinib (first compound 8 µM); 0.392 with Vismodegib + Vorinostat (first compound 0.08 µM). Besides, the relative viability with Vismodegib + Vorinostat (first compound 0.253 µM) came out at 0.373; with Vismodegib + Vorinostat (first compound 0.8 µM), 0.415; in the assay with Vismodegib + Vorinostat (first compound 2.53 µM), 0.35; with Vismodegib + Vorinostat (first compound 8 µM) it was 0.462; with Ruxolitinib + Luminespib (first compound 0.08 µM), 1.04; with Ruxolitinib + Luminespib (first compound 0.253 µM) it was 1.03. In addition, the relative viability in the assay with Ruxolitinib + Luminespib (first compound 0.8 µM) is 1.26; in the assay with Ruxolitinib + Luminespib (first compound 2.53 µM), 1.1; with Ruxolitinib + Luminespib (first compound 8 µM), 0.978; with Ruxolitinib + Crizotinib (first compound 0.08 µM) it was 0.622; in the assay with Ruxolitinib + Crizotinib (first compound 0.253 µM), 0.616; with Ruxolitinib + Crizotinib (first compound 0.8 µM), 0.736. The relative viability with Ruxolitinib + Crizotinib (first compound 2.53 µM) worked out at 0.736; in the assay with Ruxolitinib + Crizotinib (first compound 8 µM), 0.668.
